{"source": "patent US7034035B2", "about": "“Fungicidal mono-, bi-, and tri-cycloheteroalkyl amides and their compositions, methods of use and preparation” (priority 1999, dated 2006)", "key": {"[1]": {"test_system": "Leptosphaeria nodorum—LEPTNO", "assay": "Glume Blotch of Wheat, in vivo whole plant, 24 Hour Protectant", "conditions": "Leptosphaeria, 24 h, inoculated after 24 hours, read-out: LEPTNO in vivo 1 Day Protectant"}, "[2]": {"test_system": "Puccinia recondita—PUCCRT", "assay": "Brown Rust of Wheat, in vivo whole plant, 24 Hour Protectant", "conditions": "Puccinia, inoculated after 24 hours, read-out: PUCCRT in vivo 1 Day Protectant"}, "[3]": {"test_system": "Rhizoctonia solani (RHIZSO)", "assay": "microbe, parasite or virus in culture", "assay_type": "cell-based"}, "Ustilago maydis (USTIMA)": {"test_system": "Ustilago maydis (USTIMA)", "assay": "microbe, parasite or virus in culture", "assay_type": "cell-based"}, "[4]": {"conditions": "wheat (cultivar Yuma), sprayed at 100 ppm, control of fungal infection vs untreated plants"}, "[5]": {"conditions": "wheat plants sprayed at 100 ppm, control vs untreated plants"}}, "note": "Where two headings read alike, the source gives them in different places."}
{"smiles": "COc1ccnc(C(=O)N[C@H]2COC(=O)[C@H](Cc3ccccc3)[C@@H](OC(=O)C3CCCCC3)[C@H](C)OC2=O)c1O", "note": "[Compound 392]", "values": [{"measurement": "pest or weed control at 100 ppm", "setting": "[1]; [4]", "value": "75 to 100", "unit": "%"}]}
{"smiles": "COc1ccnc(C(=O)Nc2cccc(Oc3ccc(Cl)cc3)c2)c1O", "note": "[Compound 440]", "values": [{"measurement": "pest or weed control at 100 ppm", "setting": "[1]; [4]", "value": "75 to 100", "unit": "%"}]}
{"smiles": "Cc1nc(O)c(C(=O)N[C@H]2COC(=O)[C@H](Cc3ccccc3)[C@@H](OC(=O)C(C)C)[C@H](C)OC2=O)nc1C", "note": "[Compound 536]", "values": [{"measurement": "pest or weed control at 100 ppm", "setting": "[1]; [5]", "value": "75 to 100", "unit": "%"}]}
{"smiles": "COc1ccnc(C(=O)N[C@@H](COCc2ccccc2)C(=O)O[C@@H](C)[C@H](OC(=O)C(C)C)[C@@H](Cc2ccccc2)C(=O)OCc2ccccc2)c1O", "note": "[Compound 342]", "values": [{"measurement": "pest or weed control at 100 ppm", "setting": "[2]; [4]", "value": "75 to 100", "unit": "%"}]}
{"smiles": "C=C(C)C(=O)O[C@H]1[C@H](C)OC(=O)[C@@H](NC(=O)c2nccc(OC)c2O)COC(=O)[C@@H]1Cc1ccccc1", "note": "[Compound 386]", "values": [{"measurement": "pest or weed control at 100 ppm", "setting": "[1]; [4]", "value": "75 to 100", "unit": "%"}]}
{"smiles": "COc1ccnc(C(=O)NC2CC(C)(C)CC(C)(C(=O)CCCc3ccccc3)C2)c1O", "note": "(stereo not shown) [Compound 276]", "values": [{"measurement": "RHIZSO in vitro Growth Inhibition", "setting": "[3]", "value": "− (key: +: at least 80% growth inhibition; −: less than 80% growth inhibition)"}, {"measurement": "pest or weed control at 100 ppm", "setting": "[1]; [4]", "value": "75 to 100", "unit": "%"}, {"measurement": "USTIMA in vitro Growth Inhibition", "setting": "Ustilago maydis (USTIMA)", "value": "− (key: +: at least 80% growth inhibition; −: less than 80% growth inhibition)"}]}
{"smiles": "COc1ccnc(C(=O)NC(COC(=O)CC(C)OC(=O)CCc2ccccc2)C(=O)OC(C)C)c1O", "note": "(stereo not shown) [Compound 353]", "values": [{"measurement": "pest or weed control at 100 ppm", "setting": "[2]; [4]", "value": "75 to 100", "unit": "%"}]}
{"smiles": "COc1ccnc(C(=O)Nc2ccc(OC3CC(C)(C)OC(C)(C)C3)cc2)c1O", "note": "[Compound 459]", "values": [{"measurement": "pest or weed control at 100 ppm", "setting": "[1]; [5]", "value": "75 to 100", "unit": "%"}]}
{"smiles": "COc1ccnc(C(=O)NC(COC(=O)CC(C)O[Si](C)(C)C(C)(C)C)C(=O)OC(C)C)c1O", "note": "(stereo not shown) [Compound 354]", "values": [{"measurement": "pest or weed control at 100 ppm", "setting": "[2]; [4]", "value": "75 to 100", "unit": "%"}]}
{"smiles": "COc1ccnc(C(=O)NC(C(=O)OCC(C)C)C(C)OC(=O)C(C)Cc2ccccc2)c1O", "note": "(stereo not shown) [Compound 360]", "values": [{"measurement": "pest or weed control at 100 ppm", "setting": "[1]; [4]", "value": "75 to 100", "unit": "%"}]}
{"smiles": "COc1ccnc(C(=O)NC(COC(=O)C(Cc2ccccc2)C(C)O[Si](C)(C)C(C)(C)C)C(=O)OC(C)C)c1O", "note": "(stereo not shown) [Compound 357]", "values": [{"measurement": "pest or weed control at 100 ppm", "setting": "[2]; [4]", "value": "75 to 100", "unit": "%"}]}
{"smiles": "COc1ccnc(C(=O)N[C@H]2CC[C@H](Oc3ccc(C(F)(F)F)cc3)CC2)c1O", "note": "[Compound 270]", "values": [{"measurement": "RHIZSO in vitro Growth Inhibition", "setting": "[3]", "value": "+ (key: +: at least 80% growth inhibition; −: less than 80% growth inhibition)"}, {"measurement": "pest or weed control at 100 ppm", "setting": "[1]; [4]", "value": "75 to 100", "unit": "%"}, {"measurement": "USTIMA in vitro Growth Inhibition", "setting": "Ustilago maydis (USTIMA)", "value": "+ (key: +: at least 80% growth inhibition; −: less than 80% growth inhibition)"}]}
{"smiles": "Cc1ccc(C(=O)N[C@H]2COC(=O)[C@H](Cc3ccccc3)[C@@H](OC(=O)C(C)C)[C@H](C)OC2=O)c(O)n1", "note": "[Compound 525]", "values": [{"measurement": "pest or weed control at 100 ppm", "setting": "[1]; [5]", "value": "75 to 100", "unit": "%"}]}
{"smiles": "O=C(Nc1ccc(Oc2ccccc2)cc1)c1cccnc1O", "note": "[Compound 522]", "values": [{"measurement": "pest or weed control at 100 ppm", "setting": "[1]; [5]", "value": "75 to 100", "unit": "%"}]}
{"smiles": "COC(=O)C(COC(=O)C(COC(=O)C(C)C)Cc1ccccc1)NC(=O)c1nccc(OC)c1O", "note": "(stereo not shown) [Compound 349]", "values": [{"measurement": "pest or weed control at 100 ppm", "setting": "[2]; [4]", "value": "75 to 100", "unit": "%"}]}
{"smiles": "COc1ccnc(C(=O)N[C@H]2COC(=O)[C@H](Cc3ccccc3)C[C@H](C)OC2=O)c1O", "note": "[Compound 382]", "values": [{"measurement": "pest or weed control at 100 ppm", "setting": "[1]; [4]", "value": "75 to 100", "unit": "%"}]}
{"smiles": "COc1ccnc(C(=O)N[C@H]2COC(=O)[C@H](Oc3ccccc3)[C@@H](OC(=O)C(C)C)[C@H](C)OC2=O)c1O", "note": "[Compound 403]", "values": [{"measurement": "pest or weed control at 100 ppm", "setting": "[1]; [4]", "value": "75 to 100", "unit": "%"}]}
{"smiles": "COc1ccnc(C(=O)Nc2cccc(Oc3ccc(C(F)(F)F)cc3)n2)c1O", "note": "[Compound 469]", "values": [{"measurement": "pest or weed control at 100 ppm", "setting": "[2]; [5]", "value": "75 to 100", "unit": "%"}]}
{"smiles": "COc1ccnc(C(=O)Nc2ccc(Sc3cccc(C(F)(F)F)c3)cc2)c1O", "note": "[Compound 445]", "values": [{"measurement": "pest or weed control at 100 ppm", "setting": "[1]; [4]", "value": "75 to 100", "unit": "%"}]}
{"smiles": "COc1ccnc(C(=O)NC2CC(C)(C)CC(C)(COCC(Cl)CCl)C2)c1O", "note": "(stereo not shown) [Compound 257]", "values": [{"measurement": "RHIZSO in vitro Growth Inhibition", "setting": "[3]", "value": "− (key: +: at least 80% growth inhibition; −: less than 80% growth inhibition)"}, {"measurement": "pest or weed control at 100 ppm", "setting": "[1]; [4]", "value": "75 to 100", "unit": "%"}, {"measurement": "USTIMA in vitro Growth Inhibition", "setting": "Ustilago maydis (USTIMA)", "value": "+ (key: +: at least 80% growth inhibition; −: less than 80% growth inhibition)"}]}
{"smiles": "COc1ccnc(C(=O)N[C@H]2COC(=O)[C@H](Cc3ccccc3)[C@@H](OC(=O)c3ccccc3)[C@H](C)OC2=O)c1O", "note": "[Compound 394]", "values": [{"measurement": "pest or weed control at 100 ppm", "setting": "[1]; [4]", "value": "75 to 100", "unit": "%"}]}
{"smiles": "CO/N=C(/c1ccc(NC(=O)c2nccc(OC)c2O)cc1)c1ccc(C(F)(F)F)cc1", "note": "[Compound 409]", "values": [{"measurement": "pest or weed control at 100 ppm", "setting": "[1]; [4]", "value": "75 to 100", "unit": "%"}]}
{"smiles": "COc1ccnc(C(=O)NC(C)c2ccc(Cl)cc2)c1O", "note": "(stereo not shown) [Compound 246]", "values": [{"measurement": "RHIZSO in vitro Growth Inhibition", "setting": "[3]", "value": "− (key: +: at least 80% growth inhibition; −: less than 80% growth inhibition)"}, {"measurement": "pest or weed control at 100 ppm", "setting": "[1]; [4]", "value": "75 to 100", "unit": "%"}, {"measurement": "USTIMA in vitro Growth Inhibition", "setting": "Ustilago maydis (USTIMA)", "value": "− (key: +: at least 80% growth inhibition; −: less than 80% growth inhibition)"}]}
